Literature values, collected in patent publication US7468367B2, “Ethylene diamine derivatives and their use as orexin-receptor antagonists” (Smithkline Beecham p.l.c., priority 2001, dated 2008).

Legend:
freely-feeding rats = details: central administration, 4 hour time period
orexin receptors = details: central administration at the onset of the normal sleep period

Substance: orexin-A: peptide ligand and agonist of the orexin receptors; the human amino acid sequence is given in the 1st table (QPLPDCCRQKTCSCRLYELLHGAGNHAAGILTL; not fully specified; Orexin-A; UniProt O43612 34-66, looked up)
- increase in food intake over control rats receiving vehicle (freely-feeding rats): approximately four-fold
- arousal in rat sleep/EEG (orexin receptors): dose-related increase in arousal
